Results published in article PMC6514978, “Synthesis, Antibacterial Activities, Mode of Action and Acute Toxicity Studies of New Oxazolidinone-Fluoroquinolone Hybrids” (Molecules, 2019).
≈ marks a conversion by molar mass, not a printed value.

Columns and labels:
[1] = test system: VAN and quinolone-resistant E. faecium; experiment: MIC against drug-resistant strain; format: cell-based; conditions: Enterococcus faecium; E. faecium, VAN and quinolone-resistant; read-out: MIC
Protocol: (§1) 6 standard strains and 3 clinical isolates were used to the preliminary evaluation of in vitro antibacterial activities of oxazolidinone-fluoroquinolone hybrids.
(§2) Susceptibility testing of oxazolidinone-fluoroquinolone hybrids against various bacteria was performed by the broth microdilution method as outlined by the Clinical and Laboratory Standards Institute (CLSI). Three types of media, including cation-adjusted Mueller Hinton broth, Haemophilus Test Medium and cation-adjusted Mueller Hinton broth that contained 3%–5% lysed horse blood, were used to culture the corresponding bacteria. […] A final inoculum of 5 × 10^5 CFU/mL was used and plates were read after incubation for 16–24 h at 35 °C. […] Standard quality control strains (ATCC) were included throughout. Each determination was repeated in triplicate.

[2] = test system: VAN and quinolone-resistant S. pneumoniae; experiment: MIC against drug-resistant strain; format: cell-based; conditions: Streptococcus pneumoniae; S. pneumoniae, VAN and quinolone-resistant; read-out: MIC
Protocol: as §1, §2

[3] = test system: LZD and quinolone-resistant E. faecium; experiment: MIC against drug-resistant strain; format: cell-based; conditions: Enterococcus faecium; E. faecium, LZD and quinolone-resistant; read-out: MIC
Protocol: as §1, §2

MRSA = experiment: MIC against drug-resistant strain; format: cell-based; conditions: Staphylococcus aureus, read-out: MIC
Protocol: as §1, §2

[4] = test system: CIP-resistant S. haemolyticus; experiment: MIC against drug-resistant strain; format: cell-based; conditions: Staphylococcus haemolyticus; S. haemolyticus, CIP-resistant; read-out: MIC
Protocol: as §1, §2

CIP-resistant S. aureus = experiment: MIC against drug-resistant strain; format: cell-based; conditions: Staphylococcus aureus; S. aureus, CIP-resistant; read-out: MIC
Protocol: as §1, §2

MRSE = experiment: MIC against drug-resistant strain; format: cell-based, S. epidermidis; conditions: Staphylococcus epidermidis, read-out: MIC
Protocol: as §1, §2

[5] = Acute oral toxicity, limit test (OECD 425); format: in vivo; conditions: female, Kunming, mouse, in vivo, 2000 mg/kg·bw; mice, single oral dose, limit test 2000 mg/kg, 14 d observation
Protocol: (§3) Female Kunming mice (SPF grade, 18–22 g) were obtained from laboratory animal center of Lanzhou Veterinary Research Institute (Lanzhou, China). Mice were maintained under the standard conditions of 12 h light/dark cycle, room temperate (22 ± 3 °C), 50–60% relative humidity. They were fed normally with an unlimited supply of feed and water for seven days and deprived of food but not water for 4 h prior to the experiment. The toxicity test was supported by the Animal Ethics Committee of Lanzhou Institute of Husbandry and Pharmaceutical Sciences.
(§4) The acute toxicity of hybrids OBP-4 and OBP-5 was conducted by the limit test described in the OECD guideline 425 [39]. The mice were divided randomly into two groups, five animals in each group. One group of mice received a single oral dose of hybrids OBP-4 or OBP-5 at 2000 mg/kg·bw, and the other group of mice was given the equal volume of 0.5% CMC-Na solution (0.1 mL/10 g of body weight). Food was restored until 4 h after administration. The observation of each animal occurred according to the OECD guideline 425 [27], meaning continuously during the first 30 min, periodically during the next 24 h, and then daily thereafter until 14 d after dosing. The weight changes and mortality were calculated and recorded. The mice that survived were humanely killed at the end of the experiment.

Female Kunming mice = experiment: Acute oral toxicity, limit test (OECD 425); format: in vivo; conditions: single oral dose 2000 mg/kg, 14 d observation
Protocol: as §3, §4

[6] = test system: S. aureus (46) clinical isolates; experiment: Susceptibility of clinical isolates (MIC); format: cell-based, Staphylococcus aureus; conditions: for Cumulative % of strains inhibited at MIC / No. of strains inhibited at MIC: S. aureus (46); for MIC50 / MIC90 / MIC: Staphylococcus aureus, S. aureus, 46 clinical isolates; for MIC50: read-out: MIC50; for MIC90: read-out: MIC90; for MIC: read-out: MIC Range
Protocol: as §2

[7] = test system: S. haemolyticus (32) clinical isolates; experiment: Susceptibility of clinical isolates (MIC); format: cell-based, Staphylococcus haemolyticus; conditions: for Cumulative % of strains inhibited at MIC / No. of strains inhibited at MIC: S. haemolyticus (32); for MIC50 / MIC90 / MIC: Staphylococcus haemolyticus, S. haemolyticus, 32 clinical isolates; for MIC50: read-out: MIC50; for MIC90: read-out: MIC90; for MIC: read-out: MIC Range
Protocol: as §2

[8] = test system: S. pneumoniae (13) clinical isolates; experiment: Susceptibility of clinical isolates (MIC); format: cell-based, Streptococcus pneumoniae; conditions: for Cumulative % of strains inhibited at MIC / No. of strains inhibited at MIC: S. pneumoniae (13); for MIC Range / MIC50 / MIC90: S. pneumoniae, 13 clinical isolates; for MIC50 / MIC90: Streptococcus pneumoniae; for MIC50: read-out: MIC50; for MIC90: read-out: MIC90
Protocol: as §2

MRSA (13B262) = experiment: MIC, broth microdilution (CLSI), clinical isolate; format: cell-based; conditions: Staphylococcus aureus
Excerpt: (§5) 6 standard strains and 3 clinical isolates were used to the preliminary evaluation of in vitro antibacterial activities of oxazolidinone-fluoroquinolone hybrids. For the further evaluation of hybrids OBP-4 and OBP-5, 263 clinical isolates including S. aureus (46), S. haemolyticus(32), S. epidermidis (10), E. faecalis (72), E. faecium (47), S. pneumoniae (13), H. parasuis (34), S. suis (9), and 8 resistant strains including MRSA, MRSE, CIP-resistant S. aureus and S. haemolyticus, VAN and quinolone-resistant S. pneumoniae, LZD-resistant E. faecalis, LZD/VAN and quinolone-resistant E. faecium were collected and tested.
(§6) Susceptibility testing of oxazolidinone-fluoroquinolone hybrids against various bacteria was performed by the broth microdilution method as outlined by the Clinical and Laboratory Standards Institute (CLSI). Three types of media, including cation-adjusted Mueller Hinton broth, Haemophilus Test Medium and cation-adjusted Mueller Hinton broth that contained 3%–5% lysed horse blood, were used to culture the corresponding bacteria. All compounds including comparator drugs were dissolved in an appropriate solvent at a concentration of 2.048 mg/mL and then serially diluted two-fold to provide the required concentrations. A final inoculum of 5 × 10^5 CFU/mL was used and plates were read after incubation for 16–24 h at 35 °C. […] Standard quality control strains (ATCC) were included throughout. Each determination was repeated in triplicate.

[9] = test system: S. agalactiae^R (13B317), levofloxacin-resistant S. agalactiae; experiment: MIC, broth microdilution (CLSI), clinical isolate; format: cell-based; conditions: Streptococcus agalactiae; levofloxacin-resistant S. agalactiae (13B317)
Excerpt: as §5, §6

[10] = S. haemolyticus clinical isolates, CLSI criteria

Structure (SMILES) | MIC [1] [µg/mL] | MIC [2] [µg/mL] | MIC [3] [µg/mL] | MIC (MRSA) [µg/mL] | MIC [4] [µg/mL] | MIC (CIP-resistant S. aureus) [µg/mL] | MIC (MRSE) [µg/mL] | LD50 at 14 d [5] [mg/kg] | death and toxicity signs (Female Kunming mice) | MIC50 [6] [µg/mL] | MIC90 [6] [µg/mL] | MIC [6] [µg/mL] | MIC50 [7] [µg/mL] | MIC90 [7] [µg/mL] | MIC [7] [µg/mL] | MIC Range [8] [µg/mL] | MIC50 [8] [µg/mL] | MIC90 [8] [µg/mL] | MIC (MRSA (13B262)) [µg/mL] | MIC [9] [µg/mL] | other results
C[C@H]1CCc2c(N3CCC(O)(COc4ccc(N5C[C@H](CO)OC5=O)cc4F)CC3)c(F)cc3c(=O)c(C(=O)O)cn1c23 [OBP-4] | 0.5 (≈ 0.834 µM) | 0.25 (≈ 0.417 µM) | 0.5 (≈ 0.834 µM) | 0.25 (≈ 0.417 µM) | 0.5 (≈ 0.834 µM) | 0.125 (≈ 0.208 µM) | ≤ 0.0625 | > 2000 | No death and any toxicity signs were observed | ≤ 0.0625 | 0.125 (≈ 0.208 µM) | 0.0625 to 0.25 (≈ 0.104 to 0.417 µM) | 0.125 (≈ 0.208 µM) | 0.125 (≈ 0.208 µM) | 0.0625 to 0.5 (≈ 0.104 to 0.834 µM) | ≤0.0625 to 0.5 | 0.25 (≈ 0.417 µM) | 0.25 (≈ 0.417 µM) | 0.5 (≈ 0.834 µM) | 0.031 (≈ 0.0517 µM) | Cumulative % of strains inhibited at MIC ([6]; MIC 0.125 µg/mL): 93.5%; No. of strains inhibited at MIC ([6]; MIC 0.125 µg/mL): 17; Cumulative % of strains inhibited at MIC ([6]; MIC […]): 100.0%; No. of strains inhibited at MIC ([6]; MIC […]): 3; Cumulative % of strains inhibited at MIC ([6]; MIC ≤[…]): 56.5%; No. of strains inhibited at MIC ([6]; MIC ≤[…]): 26; Cumulative % of strains inhibited at MIC ([7]; MIC 0.125 µg/mL): 93.8%; No. of strains inhibited at MIC ([7]; MIC 0.125 µg/mL): 16; Cumulative % of strains inhibited at MIC ([7]; MIC 0.5 µg/mL): 100.0%; No. of strains inhibited at MIC ([7]; MIC 0.5 µg/mL): 2; Cumulative % of strains inhibited at MIC ([7]; MIC ≤[…]): 43.8%; No. of strains inhibited at MIC ([7]; MIC ≤[…]): 14; Cumulative % of strains inhibited at MIC ([8]; MIC 0.125 µg/mL): 38.5%; No. of strains inhibited at MIC ([8]; MIC 0.125 µg/mL): 3; Cumulative % of strains inhibited at MIC ([8]; MIC 0.5 µg/mL): 100.0%; No. of strains inhibited at MIC ([8]; MIC 0.5 µg/mL): 1; Cumulative % of strains inhibited at MIC ([8]; MIC […]): 92.3%; No. of strains inhibited at MIC ([8]; MIC […]): 7; Cumulative % of strains inhibited at MIC ([8]; MIC ≤[…]): 15.4%; No. of strains inhibited at MIC ([8]; MIC ≤[…]): 2
CC1Sc2c(C(=O)O)c(=O)c3cc(F)c(N4CCC(O)(COc5ccc(N6C[C@H](CO)OC6=O)cc5F)CC4)cc3n21 (stereo partly shown) [OBP-5] | 0.25 (≈ 0.414 µM) | ≤ 0.0625 | 0.125 (≈ 0.207 µM) | 0.125 (≈ 0.207 µM) | ≤ 0.0625 | ≤ 0.0625 | ≤ 0.0625 | > 2000 | No death and any toxicity signs were observed | ≤ 0.0625 | ≤ 0.0625 | 0.0625 to 0.25 (≈ 0.104 to 0.414 µM) | ≤ 0.0625 | ≤ 0.0625 | 0.0625 to 0.125 (≈ 0.104 to 0.207 µM) | ≤0.0625 to 0.25 | ≤ 0.0625 | 0.25 (≈ 0.414 µM) | 0.5 (≈ 0.828 µM) | 0.031 (≈ 0.0514 µM) | Cumulative % of strains inhibited at MIC ([6]; MIC 0.125 µg/mL): 97.8%; No. of strains inhibited at MIC ([6]; MIC 0.125 µg/mL): 3; Cumulative % of strains inhibited at MIC ([6]; MIC […]): 100.0%; No. of strains inhibited at MIC ([6]; MIC […]): 1; Cumulative % of strains inhibited at MIC ([6]; MIC ≤[…]): 91.3%; No. of strains inhibited at MIC ([6]; MIC ≤[…]): 42; Cumulative % of strains inhibited at MIC ([7]; MIC 0.125 µg/mL): 100.0%; No. of strains inhibited at MIC ([7]; MIC 0.125 µg/mL): 2; No. of strains inhibited at MIC ([7]; MIC ≤[…]): 30; Cumulative % of strains inhibited at MIC ([8]; MIC 0.125 µg/mL): 84.6%; No. of strains inhibited at MIC ([8]; MIC 0.125 µg/mL): 4; Cumulative % of strains inhibited at MIC ([8]; MIC […]): 100.0%; No. of strains inhibited at MIC ([8]; MIC […]): 2; Cumulative % of strains inhibited at MIC ([8]; MIC ≤[…]): 53.8%; No. of strains inhibited at MIC ([8]; MIC ≤[…]): 7
CC(=O)NC[C@H]1CN(c2ccc(N3CCOCC3)c(F)c2)C(=O)O1 [LZD, linezolid, reference compound] | 2 (≈ 5.93 µM) | 0.5 (≈ 1.48 µM) | 16 (≈ 47.4 µM) | 4 (≈ 11.9 µM) | 8 (≈ 23.7 µM) | 2 (≈ 5.93 µM) | 0.25 (≈ 0.741 µM) | – | – | 2 (≈ 5.93 µM) | 2 (≈ 5.93 µM) | 0.5 to 2 (≈ 1.48 to 5.93 µM) | 0.5 (≈ 1.48 µM) | 2 (≈ 5.93 µM) | 0.125 to 8 (≈ 0.371 to 23.7 µM) | 0.5 to 4 | 0.5 (≈ 1.48 µM) | 0.5 (≈ 1.48 µM) | 4 (≈ 11.9 µM) | 1 (≈ 2.96 µM) | CLSI %S (susceptible) ([6]; S. aureus clinical isolates, CLSI criteria): 100.0/- %; CLSI %R (resistant) [7, 10]: 3.8%; CLSI %S (susceptible) [7, 10]: 96.2%; CLSI %S (susceptible) ([8]; S. pneumoniae clinical isolates, CLSI criteria): 76.9/- %
